Source: patent US11771702B2, “Agonists of PPAR-δ” (priority 2018, dated 2023)
Read-outs that look alike come from different tables or passages of the source.

Assays:
PPAR-δ [1] = molecular target: T1, PPAR-δ (Homo sapiens, UniProt Q03181); assay: GAL4-DBD/PPAR-LBD luciferase reporter agonist assay in HEK293T cells, PPAR-δ; assay type: cell-based; conditions: for PPAR subtype selectivity: PPAR-δ vs PPAR-α and PPAR-γ
T1 construct: hPPARδ/LBD encoding amino acids 147-441; expressed in transfected cells; host or cells: HEK293T
T1 sequence (Q03181 147-441): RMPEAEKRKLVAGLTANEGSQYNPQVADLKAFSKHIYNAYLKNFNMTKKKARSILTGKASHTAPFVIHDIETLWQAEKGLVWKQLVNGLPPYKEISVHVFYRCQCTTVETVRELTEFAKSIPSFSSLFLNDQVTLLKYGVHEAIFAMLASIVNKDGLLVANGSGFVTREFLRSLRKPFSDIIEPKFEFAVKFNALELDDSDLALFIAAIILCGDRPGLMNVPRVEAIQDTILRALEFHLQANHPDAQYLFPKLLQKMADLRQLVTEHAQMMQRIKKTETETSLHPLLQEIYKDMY
Experimental: (§1) Measuring molecular agonist activities—a GAL4-DNA Binding Domain (GAL4-DBD) fusion protein was constructed for each PPAR family member. To assess compound activity, each construct was co-transfected into HEK293T cells (American Type Culture Collection; Manassas, Va.) along with the reporter construct, pGL5 (Promega) using Fugene 6 (Promega) as a transfection reagent and the manufacturer's protocol. An eleven-point dilution series of each compound was added to the cells and incubated overnight. Luciferase levels were then determined following the addition of Bright-Glo (Promega) using the manufacturer's recommendations.

PPAR-α = molecular target: T2, PPAR-α (Homo sapiens, UniProt Q07869); assay: GAL4-DBD/PPAR-LBD luciferase reporter agonist assay in HEK293T cells, PPAR-α; assay type: cell-based
T2 construct: hPPARα/LBD encoding amino acids 175-468; expressed in transfected cells; host or cells: HEK293T
T2 sequence (Q07869 175-468): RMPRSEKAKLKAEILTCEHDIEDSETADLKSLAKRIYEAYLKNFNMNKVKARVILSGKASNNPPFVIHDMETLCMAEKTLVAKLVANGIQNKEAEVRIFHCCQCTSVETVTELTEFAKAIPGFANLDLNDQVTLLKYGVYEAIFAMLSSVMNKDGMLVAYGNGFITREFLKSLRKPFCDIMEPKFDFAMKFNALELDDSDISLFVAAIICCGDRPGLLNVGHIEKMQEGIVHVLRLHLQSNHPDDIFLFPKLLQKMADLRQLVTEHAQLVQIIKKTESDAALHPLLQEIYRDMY
Experimental: as §1

PPAR-γ = molecular target: T3, PPAR-γ (Homo sapiens, UniProt P37231); assay: GAL4-DBD/PPAR-LBD luciferase reporter agonist assay in HEK293T cells, PPAR-γ; assay type: cell-based
T3 construct: hPPARγ/LBD encoding amino acids 184-477; expressed in transfected cells; host or cells: HEK293T
T3 sequence (P37231 184-477 isoform P37231-2): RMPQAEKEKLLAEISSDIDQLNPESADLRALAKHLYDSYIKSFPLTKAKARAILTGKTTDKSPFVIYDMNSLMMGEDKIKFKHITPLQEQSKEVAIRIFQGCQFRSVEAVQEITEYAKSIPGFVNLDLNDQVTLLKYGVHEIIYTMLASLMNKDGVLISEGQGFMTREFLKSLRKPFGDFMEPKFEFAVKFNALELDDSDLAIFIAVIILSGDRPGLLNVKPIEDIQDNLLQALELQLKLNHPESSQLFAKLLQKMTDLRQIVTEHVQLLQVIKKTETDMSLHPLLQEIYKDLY
Experimental: as §1

PPAR-δ [2] = molecular target: T4, PPAR-δ (Homo sapiens, UniProt Q03181); conditions: ligand of the PDB complex, published EC50; cited from earlier work
T4 sequence (Q03181 1-441): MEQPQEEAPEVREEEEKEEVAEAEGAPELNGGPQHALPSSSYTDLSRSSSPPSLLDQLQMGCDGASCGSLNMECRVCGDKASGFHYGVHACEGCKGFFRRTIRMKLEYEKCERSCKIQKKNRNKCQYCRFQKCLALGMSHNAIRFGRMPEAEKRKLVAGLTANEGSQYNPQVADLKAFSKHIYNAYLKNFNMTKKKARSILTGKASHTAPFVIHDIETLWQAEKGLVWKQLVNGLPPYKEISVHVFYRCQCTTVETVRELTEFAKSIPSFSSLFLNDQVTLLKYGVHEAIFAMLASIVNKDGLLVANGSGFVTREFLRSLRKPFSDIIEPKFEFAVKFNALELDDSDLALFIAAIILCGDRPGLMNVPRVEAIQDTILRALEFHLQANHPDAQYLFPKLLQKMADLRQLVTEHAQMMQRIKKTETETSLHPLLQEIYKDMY

[3] = Table 10 (PPAR-δ), read-out: PPAR-δ EC50

| Structure (SMILES) | EC50 (PPAR-δ [1]; Table 9) [µM] | EC50 (PPAR-δ [1]; Table 10) [µM] | EC50 (PPAR-α; Table 10) [µM] | also measured |
| --- | --- | --- | --- | --- |
| O=C(NCc1ccc(COCC(F)(F)F)cc1)c1cc(-c2ccccc2)[nH]n1 [GNF-3632] | 0.007 | – | – | PPAR subtype selectivity (PPAR-δ [1]): agonists of PPAR-δ and PPAR-α only; EC50 (PPAR-α; Table 9): 5.48 µM |
| COc1ccc(C(=O)/C=C/c2c(C)nn(-c3ccccc3)c2Cl)cc1CSCC(=O)O [GNF-4909] | – | 8.24 | 0.825 | EC50 (PPAR-γ; [3]): 1.83 µM |
| Cc1ccc(-c2nc(SCCCC(=O)N3CCOCC3)[nH]c2-c2ccc(C)cc2)cc1 [GNF-9820] | 0.012 | – | – | – |
| Cc1ccc(C(=O)Nc2cccc(CNCc3ccc(OC(F)(F)F)cc3)c2)cc1 [GNF-0341] | 0.011 | – | – | PPAR subtype selectivity (PPAR-δ [1]): agonists of PPAR-δ and PPAR-γ only; EC50 (PPAR-γ; Table 9, read-out: PPAR-γ EC50): 1.26 µM |
| Cc1cc(C(=O)COc2ccc(C(=O)O)cc2)c(C)n1CCC1=CCCCC1 [GNF-9057] | – | 7.49 | 4.63 | EC50 (PPAR-γ; [3]): 8.6 µM |
| O=C(CN1CCN(c2ccc(O)cc2)CC1)NCC1(N2CCOCC2)CCCCC1 [GNF-8501] | 0.006 | – | – | – |
| O=[N+]([O-])c1cc(S(=O)(=O)N2CCCC2)ccc1OCC(O)CNCc1ccc(F)cc1 (stereo not shown) [GNF-9594] | – | 4.6 | – | – |
| COc1ccc(N2CCN(C(=O)CSc3nnc(COc4ccc(Cl)cc4C)[nH]3)CC2)cc1 [GNF-7486] | 0.018 | – | – | – |
| CCOc1cccc(/C=N/c2cccc(-c3csc(/N=C/c4cccc(OCC)c4O)n3)c2)c1O [GNF-6878] | 0.008 | – | – | – |
| O=C(Nc1cccc(CNCC(c2cccs2)N2CCOCC2)c1)c1ccc(Cl)cc1 (stereo not shown) [GNF-6029] | 0.012 | – | – | – |
| O=C(OCC(=O)c1ccc(O)cc1O)c1ccc(COc2ccc3ccccc3c2)o1 [GNF-6928] | – | 3.7 | 6.9 | EC50 (PPAR-γ; [3]): 3.78 µM |
| CC(C(=O)Nc1ccc(SC(F)F)cc1)N1CC=C(c2ccc(O)cc2)CC1 (stereo not shown) [GNF-8208] | – | 7.86 | – | – |
| COCCCn1c(SCc2cccc(C(=O)O)c2)nc2sc3c(c2c1=O)CCCS3 [GNF-5154] | – | 7.04 | > 10 | EC50 (PPAR-γ; [3]): > 10 µM |
| O=C(O)Cc1csc(SCc2cc(F)cc3c2OC(c2ccccc2)OC3)n1 (stereo not shown) [GNF-1051] | – | 7.76 | 7.33 | – |
| CC/C=C\C/C=C\C/C=C\C/C=C\C/C=C\CCCC(=O)O [3GXW] | – | – | – | EC50 (PPAR-δ [2]): 4 µM |
| CCCOc1c(/C=C/C(=O)c2ccc(SCC(=O)O)c(OC)c2)cccc1OCC [GNF-1676] | – | 8.39 | 6.2 | EC50 (PPAR-γ; [3]): 1.29 µM |
| O=C(COc1ccc(C(=O)O)cc1)NC(c1ccccc1)c1ccc(Cl)cc1 (stereo not shown) [GNF-0248] | – | 7.55 | 7.04 | – |
| COc1cc(/C=C2/S/C(=N/c3ccccc3)NC2=O)ccc1OCc1cccc(C(=O)O)c1 [GNF-5758] | – | 4.33 | 6.93 | EC50 (PPAR-γ; [3]): 9.73 µM |
| O=C(Nc1ccccc1O)C1CCN(C(=O)COc2ccc(F)cc2)CC1 [GNF-5891] | 0.017 | – | – | EC50 (PPAR-γ; Table 9, read-out: PPAR-γ EC50): > 10 µM |
| CCc1cc(C(c2cccc(OC)c2)N2CCN(CCO)CC2)c(NC(=O)c2ccccc2)s1 (stereo not shown) [GNF-5295] | 0.013 | – | – | PPAR subtype selectivity (PPAR-δ [1]): agonists of PPAR-δ and PPAR-γ only; EC50 (PPAR-γ; Table 9, read-out: PPAR-γ EC50): 7.28 µM; EC50 (PPAR-α; Table 9): > 10 µM |
| O=C(Nc1ccccc1O)C1CCN(C(=O)c2ccc(OCC3CCCO3)cc2)CC1 (stereo not shown) [GNF-9448] | 0.883 | – | – | EC50 (PPAR-γ; Table 9, read-out: PPAR-γ EC50): 0.937 µM; EC50 (PPAR-α; Table 9): 7.06 µM |
| O=C(NCCCCOc1ccc(F)cc1)c1ccc([N+](=O)[O-])c(O)c1 [GNF-7176] | – | 7.24 | – | – |
| CCOc1cc(/C=C/C(=O)O)ccc1OCc1ccc(C(C)(C)C)cc1 [GNF-4516] | – | 6.82 | 2.33 | – |
| Cc1cc(C(=O)COC(=O)c2ccc(O)cc2O)c(C)n1Cc1ccc(F)cc1 [GNF-9969] | – | 9.48 | 6.94 | EC50 (PPAR-γ; [3]): 1.01 µM |
| COc1cc(CNCc2cc(C)on2)ccc1OCC(=O)Nc1ccc(Br)cc1 [GNF-6952] | 0.019 | – | – | PPAR subtype selectivity (PPAR-δ [1]): agonists of PPAR-δ and PPAR-α only; EC50 (PPAR-α; Table 9): 7.56 µM |
| CCOC(=O)NC(=O)COC(=O)c1c2c(nc3ccccc13)/C(=C\c1ccc(OC)cc1)CC(C)C2 (stereo not shown) [GNF-8560] | 0.011 | – | – | PPAR subtype selectivity (PPAR-δ [1]): pan-agonist; EC50 (PPAR-γ; Table 9, read-out: PPAR-γ EC50): 3.53 µM; EC50 (PPAR-α; Table 9): 1.41 µM |
